molecular target: Carbonic anhydrase 1 (Homo sapiens, UniProt P00915); assay: Inhibition of human recombinant carbonic anhydrase 1 preincubated for 15 mins by stopped flow CO2 hydration assay
Sequence (P00915 whole entry): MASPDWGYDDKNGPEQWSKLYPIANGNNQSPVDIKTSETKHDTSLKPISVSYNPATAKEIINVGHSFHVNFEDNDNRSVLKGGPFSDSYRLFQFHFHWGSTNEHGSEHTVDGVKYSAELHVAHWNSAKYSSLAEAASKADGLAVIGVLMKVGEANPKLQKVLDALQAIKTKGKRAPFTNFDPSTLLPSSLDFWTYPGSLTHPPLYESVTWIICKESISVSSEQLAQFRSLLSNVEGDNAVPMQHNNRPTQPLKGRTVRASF

Ki | Compound
> 10000 nM | COc1ccc2c(=O)n(-c3ccc(S(N)(=O)=O)cc3)c(S)nc2c1

molecular target: Carbonic anhydrase 9 (Homo sapiens, UniProt Q16790); assay: Inhibition of human recombinant carbonic anhydrase 9 preincubated for 15 mins by stopped flow CO2 hydration assay

Compound | Ki
NS(=O)(=O)c1ccc(-n2c(S)nc3ccc(Cl)cc3c2=O)cc1 | 34.9 nM
NS(=O)(=O)c1ccc(-n2c(S)nc3c(Cl)cccc3c2=O)cc1 | 43.9 nM
NS(=O)(=O)c1ccc(-n2c(S)nc3c(I)cccc3c2=O)cc1 | 14.5 nM
NS(=O)(=O)c1ccc(-n2c(S)nc3c(F)cccc3c2=O)cc1 | 45.4 nM
Cc1cc(C)c2nc(S)n(-c3ccc(S(N)(=O)=O)cc3)c(=O)c2c1 | 17.5 nM
NS(=O)(=O)c1ccc(-n2c(S)nc3c(Br)cccc3c2=O)cc1 | 4.7 nM
COc1cccc2c(=O)n(-c3ccc(S(N)(=O)=O)cc3)c(S)nc12 | 5.1 nM
COc1ccc2nc(S)n(-c3ccc(S(N)(=O)=O)cc3)c(=O)c2c1 | 3.7 nM

The next lines start with the values.

Ki | Compound
50.4 nM | COc1cc2c(=O)n(-c3ccc(S(N)(=O)=O)cc3)c(S)nc2c(OC)c1OC
157 nM | NS(=O)(=O)c1ccc(-n2c(S)nc3cc(Cl)ccc3c2=O)cc1
16.2 nM | Cc1ccc2nc(S)n(-c3ccc(S(N)(=O)=O)cc3)c(=O)c2c1
35.6 nM | Cc1cccc2c(=O)n(-c3ccc(S(N)(=O)=O)cc3)c(S)nc12
49.3 nM | COc1ccc2c(=O)n(-c3ccc(S(N)(=O)=O)cc3)c(S)nc2c1OC
275 nM | NS(=O)(=O)c1ccc(-n2c(S)nc3ccc(Br)cc3c2=O)cc1
163 nM | NS(=O)(=O)c1ccc(-n2c(S)nc3cc(Br)ccc3c2=O)cc1

From ChEMBL document CHEMBL3763024, “Development of 3-(4-aminosulphonyl)-phenyl-2-mercapto-3H-quinazolin-4-ones as inhibitors of carbonic anhydrase isoforms involved in tumorigenesis and glaucoma” (Bioorg Med Chem, 2016)
